Reference: patent US12535491B2, “Vaccine comprising protein-targeted (PT) extracellular DNA isolated from bacterial matrix” (priority 2018, dated 2026)

Legend:
[1] = system: non-amyloid producer Escherichia coli strain RA-74; assay type: cell-based
[2] = system: amyloid producing Escherichia coli strain VT-156; assay type: cell-based
HSV-1 = assay type: cell-based, human Herpes Virus 1
microbial amyloid = assay type: cell-based, Escherichia coli
[3] = system: SU-DHL4 target cell lines; experiment: Antibody-dependent cell-mediated cytotoxicity (ADCC) assay; assay type: cell-based; details: SU-DHL4 target cells
Description: The efficacies of Rituximab and Rituximab-Mod were compared based on Binding to CD20-expressing target cells and antibody-dependent cell-mediated cytotoxicity [ADCC] assays.
The binding of Rituximab-Mod and rituximab was assessed on SU-DHL4 cell lines with high (1,000,000) CD20 receptor copy numbers. […] The ability of Rituximab-Mod and rituximab to mediate ADCC was assessed using SU-DHL4 target cell lines. The potency of Rituximab-Mod was higher than that of rituximab.

beta-amyloid (Aβ) = experiment: Amount of Aβ in the brain of Tg2576 mice injected with S. aureus bacterial DNA, with or without DNase (sandwich ELISA); assay type: in vivo, mice (line Tg2576)
Excerpt: The effect on the model of increased gut permeability in mice was studied. Increased gut permeability allows increased levels of bacterial DNA in the blood circulation, leading to the increase in the level of beta amyloid (Bala, S. et al., 2014; DiBiagio, J. R. et al., 2016). DNAse prevents the appearance of a thermostable protein formed by the extracellular DNA.
Hemizygous transgenic mice expressing familial Alzheimer's disease mutant human (line Tg2576, Hsiao et al., 1996). A total of 70 male mice were used. To identify beta-amyloid (AB) amount, one quarter brain from each animal was homogenized in 70% formic acid at a weight: volume ratio of 100 mg/ml. The homogenate was sonicated for 2 min and centrifuged at 100,000 g for 1 h. After centrifugation, the supernatant fraction was removed and neutralized with 19 vol of Tris-phosphate buffer. Samples were analyzed by a modified sandwich ELISA that detects total AB. To detect human Aβ, aliquots of homogenate were added to Nunc Maxisorb plates coated with monoclonal antibody 6E10 (Senetek) capture antibody. After incubation at 4° C. overnight, human Ab was detected by monoclonal antibody 4G8 (Senetek) conjugated to horseradish peroxidase (HRP). After washing with PBS containing 0.05% Tween 20, the bound peroxidase was detected by the TMB peroxidase kit (Kirkegaard & Perry). Plates were read at 450 nm in a standard plate reader, and unknowns were quantified by comparison to known quantities of freshly dissolved Ab40 (Bachem).
Animals were injected daily, with increasing concentrations of S. aureus bacterial DNA. Control animals were injected with sterile water. DNase (2000 Kunitz units) was administered orally or by IV on day 1.

Compound	Bacterial OD (570 nm), Escherichia coli strain RA-74 [1]	Bacterial OD (570 nm) [2]	decrease in CR binding (microbial amyloid)	other results
C=CC[C@@H]1/C=C(\C)C[C@H](C)C[C@H](OC)[C@H]2O[C@@](O)(C(=O)C(=O)N3CCCC[C@H]3C(=O)O[C@H](/C(C)=C/[C@@H]3CC[C@@H](O)[C@H](OC)C3)[C@H](C)[C@@H](O)CC1=O)[C@H](C)C[C@@H]2OC [Tacrolimus]	1.382	0.678	about 40%	Number (%) of unaltered cells, Herpes virus of type I (HSV-1): 30%; antiviral activity against the herpes virus (type I) (HSV-1): has the antiviral activity
CCN(CC)CCCC(C)Nc1c2ccc(Cl)cc2nc2ccc(OC)cc12 (stereo not shown) [Quinacrine]	1.406	0.657	about 40%	
rituximab				EC50 of target cell killing (ADCC) [3]: ~0.01 µg/mL
Pentosan polysulfate	1.416		about 40%	Bacterial OD (570 nm), Escherichia coli strain VT-56 [2]: 0.547
DNase				Total Aβ in the brain (beta-amyloid (Aβ); DNA 5 mcg + DNase 5 mcg IV): 94 ± 23 pmol/mg; Total Aβ in the brain (beta-amyloid (Aβ); DNA 5 mcg + DNase 5 mcg PO): 103 ± 35 pmol/mg; Total Aβ in the brain (beta-amyloid (Aβ); DNA 20 mcg + DNase 5 mcg IV): 73 ± 12 pmol/mg; Total Aβ in the brain (beta-amyloid (Aβ); DNA 20 mcg + DNase 5 mcg PO): 95 ± 12 pmol/mg
